Experimental data published in patent US9951066B2, “Compositions, uses and methods for making them” (Pimera, Inc., priority 2014, dated 2018).
Structures can show the parent of a compound that is named as a salt. Where two headings read alike, the source gives them in different places.

Key:
Format in all cases: cell-based
A375 cell line = assay: Alamar Blue cell viability assay, A375; details: Homo sapiens
Protocol: (§1) Inhibitory activity on cell proliferation of representative compounds of the invention was determined using an Alamar Blue cell viability assay as described hereafter.
(§2) 3000 cancer cells in 100 uL of cell culture media were plated in each well of a 96-well clear bottom, black wall cell culture-pretreated plate.
(§3) The next day compounds are serially diluted (3-fold in cell culture media) across a 96-well polypropylene mother plate from row A to row F, to yield 6 concentrations (10 uM, 3.3 uM, 1.1 uM, 370 nM, 124 nM and 41 nM) for each test compound. Rows G and H contain only DMSO.
(§4) Once titrations are made, the media in plates with cells were disposed and 100 μL of drug dilutions are transferred to plates with cells. After a ninety six-hour incubation at 37° C., 10 uL of resazurin solution from Alamar Blue Cell Viability kit (Invitrogen, Carlsbad, Calif.) was added to the media and cells were incubated at 37° C. for three more hours. At the end of this incubation the production of resofurin was measured using Spectrmax M2 microplate reader (Molecular Devices, Sunnyvale, Calif.)

A2058 = assay: Alamar Blue cell viability assay, A2058; details: Homo sapiens, cell proliferation inhibition, 96 h incubation, read-out: Pharmaceutical activity IC50 A2058
Protocol: as §1, §2, §3, §4

NB4-Av = assay: Alamar Blue cell viability assay, NB4-Av; details: 96 h incubation, read-out: cell proliferation inhibition NB4-Av
Protocol: as §1, §2, §3, §4

HCT-116 = assay: Alamar Blue cell viability assay, HCT-116; details: Homo sapiens, 96 h incubation, read-out: cell proliferation inhibition HCT-116
Protocol: as §1, §2, §3, §4

KG-1 = assay: Alamar Blue cell viability assay, KG-1; details: Homo sapiens, 96 h incubation, read-out: cell proliferation inhibition KG-1
Protocol: as §1, §2, §3, §4

MCF7 = assay: Alamar Blue cell viability assay, MCF7; details: Homo sapiens, 96 h incubation, read-out: cell proliferation inhibition MCF7
Protocol: as §1, §2, §3, §4

Hep G2 = assay: Alamar Blue cell viability assay, Hep G2; details: Homo sapiens, HepG2, 96 h incubation, read-out: cell proliferation inhibition Hep G2
Protocol: as §1, §2, §3, §4

AGS = assay: Alamar Blue cell viability assay, AGS; details: Homo sapiens, 96 h incubation, read-out: cell proliferation inhibition AGS
Protocol: as §1, §2, §3, §4

NCI-H1299 = assay: Alamar Blue cell viability assay, NCI-H1299; details: Homo sapiens, 96 h incubation, read-out: cell proliferation inhibition NCI-H1299
Protocol: as §1, §2, §3, §4

ML-2 = assay: Alamar Blue cell viability assay, ML-2; details: Homo sapiens, 96 h incubation, read-out: cell proliferation inhibition ML-2
Protocol: as §1, §2, §3, §4

B16-F10 = assay: Alamar Blue cell viability assay, B16-F10; details: Mus musculus, 96 h incubation, read-out: cell proliferation inhibition B16-F10
Protocol: as §1, §2, §3, §4

LnCAP = assay: Alamar Blue cell viability assay, LnCAP; details: Homo sapiens, 96 h incubation, read-out: cell proliferation inhibition LnCAP
Protocol: as §1, §2, §3, §4

MDA-MB-231 = assay: Alamar Blue cell viability assay, MDA-MB-231; details: Homo sapiens, 96 h incubation, read-out: cell proliferation inhibition MDA-MB-231
Protocol: as §1, §2, §3, §4

SKM_1_AV = assay: Alamar Blue cell viability assay, SKM_1_AV; details: 96 h incubation, read-out: cell proliferation inhibition SKM_1_AV
Protocol: as §1, §2, §3, §4

NOMO-1 = assay: Alamar Blue cell viability assay, NOMO-1; details: Homo sapiens, 96 h incubation, read-out: cell proliferation inhibition NOMO-1
Protocol: as §1, §2, §3, §4

HT-1080 = assay: Alamar Blue cell viability assay, HT-1080; details: Homo sapiens, 96 h incubation, read-out: cell proliferation inhibition HT-1080
Protocol: as §1, §2, §3, §4

CT26 = assay: Alamar Blue cell viability assay, CT26; details: Mus musculus, 96 h incubation, read-out: cell proliferation inhibition CT26
Protocol: as §1, §2, §3, §4

PC-3 = assay: Alamar Blue cell viability assay, PC-3; details: Homo sapiens, 96 h incubation, read-out: cell proliferation inhibition PC-3
Protocol: as §1, §2, §3, §4

DLD-1 = assay: Alamar Blue cell viability assay, DLD-1; details: Homo sapiens, 96 h incubation, read-out: cell proliferation inhibition DLD-1
Protocol: as §1, §2, §3, §4

SKM-1 = assay: Alamar Blue cell viability assay, SKM-1; details: Homo sapiens, 96 h incubation, read-out: cell proliferation inhibition SKM-1
Protocol: as §1, §2, §3, §4

A549 = assay: Alamar Blue cell viability assay, A549; details: Homo sapiens, 96 h incubation, read-out: cell proliferation inhibition A549
Protocol: as §1, §2, §3, §4

4T1 = assay: Alamar Blue cell viability assay, 4T1; details: Mus musculus, 96 h incubation, read-out: cell proliferation inhibition 4T1
Protocol: as §1, §2, §3, §4

SK-MEL 28 = assay: Alamar Blue cell viability assay, SK-MEL 28; details: Homo sapiens, cell proliferation inhibition, 96 h incubation, read-out: Pharmaceutical activity IC50 SK-MEL 28
Protocol: as §1, §2, §3, §4

WM-115 = assay: Alamar Blue cell viability assay, WM-115; details: Homo sapiens, 96 h incubation, read-out: cell proliferation inhibition WM-115
Protocol: as §1, §2, §3, §4

Hs.294T = assay: Alamar Blue cell viability assay, Hs.294T; details: Homo sapiens, 96 h incubation, read-out: cell proliferation inhibition Hs.294T
Protocol: as §1, §2, §3, §4

JHOC9 = assay: Alamar Blue cell viability assay, JHOC9 ovarian cell line; details: 96 h incubation, read-out: IC50 in ovarian cell lines JHOC9
Protocol: as §1, §2, §3, §4

U-87 MG = assay: Alamar Blue cell viability assay, U-87 MG; details: Homo sapiens, cell proliferation inhibition, 96 h incubation, read-out: Pharmaceutical activity IC50 U-87 MG
Protocol: as §1, §2, §3, §4

kuramochi = assay: Alamar Blue cell viability assay, kuramochi ovarian cell line; details: 96 h incubation, read-out: IC50 in ovarian cell lines kuramochi
Protocol: as §1, §2, §3, §4

ES.2 = assay: Alamar Blue cell viability assay, ES.2; details: Homo sapiens
Protocol: as §1, §2, §3, §4

A2780 = assay: Alamar Blue cell viability assay, A2780; details: Homo sapiens, cell proliferation inhibition, 96 h incubation, read-out: Pharmaceutical activity IC50 A2780
Protocol: as §1, §2, §3, §4

TOV112D = assay: Alamar Blue cell viability assay, TOV112D ovarian cell line; details: Homo sapiens, 96 h incubation, read-out: IC50 in ovarian cell lines TOV112D
Protocol: as §1, §2, §3, §4

2008 = assay: Alamar Blue cell viability assay, 2008; details: cell proliferation inhibition, 96 h incubation, read-out: Pharmaceutical activity IC50 2008
Protocol: as §1, §2, §3, §4

JHOC7 = assay: Alamar Blue cell viability assay, JHOC7 ovarian cell line; details: 96 h incubation, read-out: IC50 in ovarian cell lines JHOC7
Protocol: as §1, §2, §3, §4

EF-21 = assay: Alamar Blue cell viability assay, EF-21 ovarian cell line; details: 96 h incubation, read-out: IC50 in ovarian cell lines EF-21
Protocol: as §1, §2, §3, §4

Malme-3M = assay: Alamar Blue cell viability assay, Malme-3M; details: Homo sapiens, cell proliferation inhibition, 96 h incubation, read-out: Pharmaceutical activity IC50 Malme-3M
Protocol: as §1, §2, §3, §4

JHOM1 = assay: Alamar Blue cell viability assay, JHOM1 ovarian cell line; details: 96 h incubation, read-out: IC50 in ovarian cell lines JHOM1
Protocol: as §1, §2, §3, §4

[1] = A-375, cell proliferation inhibition, Alamar Blue, 96 h incubation, read-out: Pharmaceutical activity IC50 A375
[2] = Table 2, 96 h incubation, read-out: cell proliferation inhibition ES.2

Compound: Cc1cnc(CNC(=O)c2cc3ccc(N4CCCN(C)CC4)nc3n3c2nc2ccccc23)cn1 [Compound 2E, 2-(4-methyl-[1,4]diazepan-1-yl)-1,7,11b-triazabenzo[c]fluorene-6-carboxylic acid (5-methylpyrazin-2-ylmethyl)-amide]
- IC50 (A375 cell line; [1]): < 1000 nM
- IC50 (A2058): 5 to 10 µM

Compound: C[C@@H]1CN(c2ccc3cc(C#N)c4nc5ccccc5n4c3n2)C[C@H](C)N1 [Compound 3A, 2-((3S,5R)-3,5-dimethylpiperazin-1-yl)-1,7,11b-triaza-benzo[c]fluorene-6-carbonitrile]
- IC50 (A375 cell line; [1]): < 1000 nM
- IC50 (NB4-Av): < 1000 nM
- IC50 (HCT-116): < 1000 nM
- IC50 (KG-1): < 1000 nM
- IC50 (MCF7): 5 to 10 µM
- IC50 (Hep G2): < 1000 nM
- IC50 (AGS): < 1000 nM
- IC50 (NCI-H1299): 5 to 10 µM
- IC50 (ML-2): < 1000 nM
- IC50 (B16-F10): 1 to 5 µM
- IC50 (LnCAP): 5 to 10 µM
- IC50 (MDA-MB-231): < 1000 nM
- IC50 (SKM_1_AV): < 1000 nM
- IC50 (NOMO-1): < 1000 nM
- IC50 (HT-1080): 5 to 10 µM
- IC50 (CT26): 5 to 10 µM
- IC50 (PC-3): 1000 to 5000 nM
- IC50 (DLD-1): < 1000 nM
- IC50 (SKM-1): < 1000 nM
- IC50 (A549): 5 to 10 µM
- IC50 (4T1): 5 to 10 µM

Compound: CNC(=O)c1cc2ccc(N3CCCN(C)CC3)nc2n2c1nc1ccccc12 [Compound 2G, 2-(4-methyl-[1,4]diazepan-1-yl)-1,7,11b-triazabenzo[c]fluorene-6-carboxylic acid methylamide]
- IC50 (SK-MEL 28): < 1000 nM
- IC50 (A375 cell line; [1]): < 1000 nM
- IC50 (NB4-Av): < 1000 nM
- IC50 (HCT-116): < 1000 nM
- IC50 (WM-115): 1000 to 5000 nM
- IC50 (KG-1): < 1000 nM
- IC50 (Hs.294T): < 1000 nM
- IC50 (MCF7): 1 to 5 µM
- IC50 (Hep G2): < 1000 nM
- IC50 (JHOC9): < 1000 nM
- IC50 (AGS): < 1000 nM
- IC50 (NCI-H1299): 1 to 5 µM
- IC50 (ML-2): < 1000 nM
- IC50 (B16-F10): 1 to 5 µM
- IC50 (U-87 MG): < 1000 nM
- IC50 (kuramochi): < 1000 nM
- IC50 (ES.2; Table 1, cell proliferation inhibition, 96 h incubation, read-out: Pharmaceutical activity IC50 ES.2): < 1000 nM
- IC50 (ES.2; [2]): < 1000 nM
- IC50 (LnCAP): 1 to 5 µM
- IC50 (A2780): < 1000 nM
- IC50 (MDA-MB-231): < 1000 nM
- IC50 (TOV112D): < 1000 nM
- IC50 (SKM_1_AV): < 1000 nM
- IC50 2008: < 1000 nM
- IC50 (NOMO-1): < 1000 nM
- IC50 (HT-1080): 1 to 5 µM
- IC50 (CT26): 1 to 5 µM
- IC50 (A2058): < 1 µM
- IC50 (PC-3): < 1000 nM
- IC50 (DLD-1): < 1000 nM
- IC50 (JHOC7): < 1000 nM
- IC50 (EF-21): < 1000 nM
- IC50 (Malme-3M): < 1000 nM
- IC50 (JHOM1): < 1000 nM
- IC50 (SKM-1): < 1000 nM
- IC50 (A549): 1 to 5 µM
- IC50 (4T1): 5 to 10 µM

Compound: CN1CCCN(c2ccc3cc(C(=O)O)c4nc5ccccc5n4c3n2)CC1 [Compound 1A, 2-(4-methyl-[1,4]diazepan-1-yl)-1,7,11b-triaza-benzo[c]fluorene-6-carboxylate sodium salt]
- IC50 (A375 cell line; [1]): < 1000 nM
- IC50 (NB4-Av): < 1000 nM
- IC50 (HCT-116): < 1000 nM
- IC50 (WM-115): < 1000 nM
- IC50 (KG-1): < 1000 nM
- IC50 (Hs.294T): < 1000 nM
- IC50 (MCF7): 1 to 5 µM
- IC50 (Hep G2): < 1000 nM
- IC50 (AGS): 1000 to 5000 nM
- IC50 (NCI-H1299): 1 to 5 µM
- IC50 (ML-2): < 1000 nM
- IC50 (B16-F10): 5 to 10 µM
- IC50 (ES.2; [2]): < 1000 nM
- IC50 (LnCAP): 5 to 10 µM
- IC50 (MDA-MB-231): 1000 to 5000 nM
- IC50 (SKM_1_AV): < 1000 nM
- IC50 (NOMO-1): < 1000 nM
- IC50 (HT-1080): 1 to 5 µM
- IC50 (CT26): 5 to 10 µM
- IC50 (PC-3): 1000 to 5000 nM
- IC50 (DLD-1): 1000 to 5000 nM
- IC50 (SKM-1): < 1000 nM
- IC50 (A549): 5 to 10 µM
- IC50 (4T1): 5 to 10 µM

Compound: CCN1CCN(c2ccc3cc(C#N)c4nc5ccccc5n4c3n2)CC1 [Compound 3B, 2-(4-ethylpiperazin-1-yl)-1,7,11b-triaza-benzo[c]fluorene-6-carbonitrile]
- IC50 (A375 cell line; [1]): < 1000 nM
- IC50 (Hep G2): < 1000 nM
- IC50 (SKM-1): < 1000 nM

Compound: CN1CCN(c2ccc3cc(C#N)c4nc5ccccc5n4c3n2)CC1 [Compound 3H, 2-(4-Methyl-piperazin-1-yl)-1,7,11b-triaza-benzo[c]fluorene-6-carbonitrile]
- IC50 (A375 cell line; A-375, Table 4, cell proliferation inhibition, Alamar Blue, 96 h incubation, read-out: Pharmaceutical activity in A375 cell line IC50): < 1000 nM

Compound: CC(C)NC(=O)c1cc2ccc(N3CCCNCC3)nc2n2c1nc1ccccc12 [Compound 9B, 2-[1,4]Diazepan-1-yl-1,7,11b-triaza-benzo[c]fluorene-6-carboxylic acid isopropylamide]
- IC50 (A375 cell line; A-375, 96 h, read-out: Pharmaceutical activity in A375 cell line IC50): 1000 to 5000 nM
